Drawing on patent US8716281B2, “Pyrimidine compounds that inhibit anaplastic lymphoma kinase” (Amgen Inc., priority 2010, dated 2014), this text covers IC50 for 13 compounds.

SMILES strings stand for the structures.

The target in the test is T1, wild-type human ALK cytoplasmic domain (amino acids 1058-1620) (Homo sapiens, UniProt Q9UM73).
T1 construct: The cytoplasmic domain (amino acids 1058-1620) of wild-type human ALK; GST (N); made in house; host or cells: SF9 insect cells
The test is described as follows: ALK Inhibition in Enzyme Assay (Lance TR-FRET). The class given is biochemical. The note with it: 2 nM enzyme, ATP at 40 μM (Km apparent), 90 minutes, mean of three replicates; read-out: ALK IC50. Here is the method:
ALK Inhibition in Enzyme Assay
Kinase activity of the purified protein was assessed using a Lance® TR-FRET assay. […] The reaction was allowed to proceed for 90 minutes at room temperature and was then terminated with 20 mM EDTA in 50 mM Tris (pH 7.5), 100 mM NaCl, 0.05% BSA, and 0.1% Tween-20. Phosphorylation of the peptide substrate was detected using the Lance® detection reagents streptavidin-allophycocyanin (SA-APC) and Eu-W1024 anti-phosphotyrosine antibody (PT66) from Perkin Elmer Life Sciences (Waltham, Mass.). The plates were read on a RUBY star plate reader (BMG LABTECH, Cary, N.C.) with an excitation wavelength of 320 nm.
For orientation: In TR-FRET formats the signal depends on donor and acceptor labels being close together.

T1 sequence (Q9UM73 1058-1620): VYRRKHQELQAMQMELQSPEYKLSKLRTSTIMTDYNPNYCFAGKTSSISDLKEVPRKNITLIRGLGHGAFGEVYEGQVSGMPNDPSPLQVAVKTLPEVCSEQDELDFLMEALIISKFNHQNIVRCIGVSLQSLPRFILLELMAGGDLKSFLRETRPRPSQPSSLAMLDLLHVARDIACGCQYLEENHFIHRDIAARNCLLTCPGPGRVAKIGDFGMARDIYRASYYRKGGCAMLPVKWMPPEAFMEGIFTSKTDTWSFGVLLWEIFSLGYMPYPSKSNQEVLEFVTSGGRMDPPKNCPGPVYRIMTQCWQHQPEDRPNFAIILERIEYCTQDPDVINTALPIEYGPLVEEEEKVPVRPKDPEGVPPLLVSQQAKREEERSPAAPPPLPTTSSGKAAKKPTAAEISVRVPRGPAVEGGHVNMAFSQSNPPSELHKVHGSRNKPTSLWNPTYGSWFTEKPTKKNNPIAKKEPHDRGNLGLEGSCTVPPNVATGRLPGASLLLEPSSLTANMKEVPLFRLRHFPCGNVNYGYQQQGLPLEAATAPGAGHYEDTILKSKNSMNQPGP

For orientation: IC50 means the concentration that gives 50% inhibition. `COc1cc(Nc2nccc(N3CC(C(=O)NCc4ccc(C)cc4)CCC3C)n2)cc(OC)c1OC` (mixture of isomers) [Example 194, 6-Methyl-N-(4-Methylbenzyl)-1-(2-(3,4,5-Trimethoxyphenylamino)Pyrimidin-4-Yl)Piperidine-3-Carboxamide]: the IC50 was 100 to 1000 nM.

As for `COc1cc(Nc2nccc(N3CC(C)CC(C(=O)NCc4ccc(C)cc4)C3)n2)cc(OC)c1OC` (mixture of isomers) [Example 195, 5-Methyl-N-(4-Methylbenzyl)-1-(2-(3,4,5-Trimethoxyphenyl Amino)Pyrimidin-4-Yl)Piperidine-3-Carboxamide], the 50% inhibitory concentration (IC50) was in the range of 1000 to 5000 nM.

Turning to `COc1cc(Nc2nccc(N3CCNC(C(=O)NCc4ccc(C)cc4)C3)n2)cc(OC)c1OC` (stereo not shown) [Example 2, N-(4-Methylbenzyl)-4-(2-(3,4,5-Trimethoxyphenylamino)Pyrimidin-4-Yl)Piperazine-2-Carboxamide], the IC50 was in the range of 1000 to 5000 nM.

For `O=C(NCc1ccc(OC(F)(F)F)cc1)[C@H]1CCCN(c2ccnc(Nc3ccc(N4CCOCC4)cc3)n2)C1` [Example 3, (S)-1-(2-(4-Morpholinophenylamino)Pyrimidin-4-Yl)-N-(4-(Trifluoromethoxy)Benzyl)Piperidine-3-Carboxamide], the concentration for half-maximal inhibition (IC50) lay in the range of 100 to 1000 nM.

`COc1cc(Nc2nccc(N3CCSC(C(=O)NCc4ccc(C)cc4)C3)n2)cc(OC)c1OC` (stereo not shown) [Example 4, N-(4-Methylbenzyl)-4-(2-(3,4,5-Trimethoxy-Phenylamino)Pyrimidin-4-Yl)Thiomorpholine-2-Carboxamide]: the 50% inhibitory concentration (IC50) lay within 1000 to 5000 nM.

`COc1cc(Nc2nccc(N3CCOC(C(=O)NCc4ccc(C)cc4)C3)n2)cc(OC)c1OC` (stereo not shown) [Example 5, N-(4-Methylbenzyl)-4-(2-(3,4,5-Trimethoxy-Phenylamino)Pyrimidin-4-Yl)Morpholine-2-Carboxamide]: the IC50 was in the range of 1000 to 5000 nM.

With `COc1cc(Nc2ncc(C)c(N3CCC[C@H](C(=O)NCc4ccc(C)cc4)C3)n2)cc(OC)c1OC` [Example 8, (S)-1-(5-Methyl-2-(3,4,5-Trimethoxyphenyl-Amino)Pyrimidin-4-Yl)-N-(4-Methylbenzyl)Piperidine-3-Carboxamide], the IC50 lay within 1000 to 5000 nM.

As for `COc1cc(Nc2ncc(C)c(N3CCC[C@@H](C(=O)NCc4ccc(C)cc4)C3)n2)cc(OC)c1OC` [Example 9, (R)-1-(5-Methyl-2-(3,4,5-Trimethoxyphenyl-Amino)Pyrimidin-4-Yl)-N-(4-Methylbenzyl)Piperidine-3-Carboxamide], the half-inhibitory concentration (IC50) is 100 to 1000 nM.

Turning to `COc1cc(Nc2ncc(Cl)c(N3CCC[C@H](C(=O)NCc4ccc(C)cc4)C3)n2)cc(OC)c1OC` [Example 10, (S)-1-(5-Chloro-2-(3,4,5-Trimethoxyphenyl-Amino)Pyrimidin-4-Yl)-N-(4-Methylbenzyl)Piperidine-3-Carboxamide], the IC50 fell in the range of 100 to 1000 nM.

Consider `COc1cc(Nc2nc(C)cc(N3CCC[C@H](C(=O)NCc4ccc(C)cc4)C3)n2)cc(OC)c1OC` [Example 11, (S)-1-(6-Methyl-2-(3,4,5-Trimethoxyphenyl-Amino)Pyrimidin-4-Yl)-N-(4-Methylbenzyl)Piperidine-3-Carboxamide], for which the IC50 was in the range of 5000 to 10000 nM.

On to `COc1cc(Nc2nc(Cl)cc(N3CCC[C@H](C(=O)NCc4ccc(C)cc4)C3)n2)cc(OC)c1OC` [Example 12, (S)-1-(6-Chloro-2-(3,4,5-Trimethoxyphenyl-Amino)Pyrimidin-4-Yl)-N-(4-Methylbenzyl)Piperidine-3-Carboxamide], for which the IC50 is over 10000 nM.

As for `COc1cc(Nc2nccc(N3CCC[C@@H](C(=O)NCc4ccc(F)cc4)C3)n2)cc(OC)c1OC` [Example 13, (R)—N-(4-Fluorobenzyl)-1-(2-(3,4,5-Trimethoxy-Phenylamino)Pyrimidin-4-Yl)Piperidine-3-Carboxamide], the IC50 lay in the range of 1000 to 5000 nM.

Consider `COc1cc(Nc2nccc(N3CCC[C@H](C(=O)NCc4ccc(F)cc4)C3)n2)cc(OC)c1OC` [Example 14, (S)-N-((4-fluorophenyl)methyl)-1-(2-((3,4,5-tris(methyloxy)phenyl)amino)-4-pyrimidinyl)-3-piperidinecarboxamide], for which the IC50 is 100 to 1000 nM.
